Test: Phase I safety: adverse events, adverse drug reactions, DLTs in patients with advanced solid tumors
Format: in vivo, human
Conditions: for Adverse drug reactions: ALT increased / Adverse drug reactions: AST increased / Adverse drug reactions: Any events / Adverse drug reactions: Blood AP increased / Adverse drug reactions: Decreased appetite / Adverse drug reactions: Diarrhea / Adverse drug reactions: Dry skin / Adverse drug reactions: GGT increased / Adverse drug reactions: GI disorders / Adverse drug reactions: General disorders and administration site conditions / Adverse drug reactions: Hyperglycemia / Adverse drug reactions: Investigations / Adverse drug reactions: Metabolism and nutrition disorders / Adverse drug reactions: Nausea / Adverse drug reactions: Neutrophil count decreased / Adverse drug reactions: Pruritus / Adverse drug reactions: Pyrexia / Adverse drug reactions: Rash maculo-papular / Adverse drug reactions: Skin and SC tissue disorders / Adverse drug reactions: Stomatitis / Adverse drug reactions: Vomiting / Adverse drug reactions: WBC count decreased / Adverse events: ALT increased / Adverse events: AST increased / Adverse events: Any events / Adverse events: Blood AP increased / Adverse events: Decreased appetite / Adverse events: Diarrhea / Adverse events: Dry skin / Adverse events: GGT increased / Adverse events: GI disorders / Adverse events: General disorders and administration site conditions / Adverse events: Hyperglycemia / Adverse events: Investigations / Adverse events: Metabolism and nutrition disorders / Adverse events: Nausea / Adverse events: Neutrophil count decreased / Adverse events: Pruritus / Adverse events: Pyrexia / Adverse events: Rash maculo-papular / Adverse events: Skin and SC tissue disorders / Adverse events: Stomatitis / Adverse events: Vomiting / Adverse events: WBC count decreased: DEP n = 12
Description: This was a phase I, open-label, non-randomized, dose-escalating first-in-human study to evaluate the safety, pharmacokinetics, antitumor activity, pharmacodynamics, and pharmacogenomics of TAS-117 in patients with advanced solid tumors. The study had three phases: a dose escalation phase (DEP), a regimen modification phase (RMP), and a safety assessment phase (SAP). The treatment cycle on each regimen lasted 21 days. The DEP used an accelerated titration and 3 + 3 design. TAS-117 was administered orally once daily (QD) on an empty stomach (1 h before or 2 h after a meal). Dosing was determined based on a 4-week repeated oral-dose toxicology study in monkeys (data on file, Taiho Pharmaceutical Co., Ltd.); the highest non-severely toxic dose was 1.2 mg/kg/day, which was converted to 3.84 mg/body/day, or 2.4 mg/m^2. Therefore, the starting dose was determined to be ≤ 2.4 mg/m^2. At dose level 1, TAS-117 was administered at 2 mg QD (Day − 2), and the dose was increased to 4 mg QD after 2 days (Day 1). The RMP was conducted according to a 3 + 3 design. During this phase, the dose regimen was changed from QD administration to intermittent dosing of daily TAS-117 with 4 days on/3 days off. TAS-117 was administered on an empty stomach. Dose-limiting toxicities (DLTs) were evaluated in Cycle 1 of the DEP and RMP. […] The RD and regimen for the SAP were determined based on the safety, pharmacokinetics, pharmacodynamics, and antitumor activity profile determined in the DEP and RMP. During the SAP, the safety and preliminary efficacy profiles of TAS-117 were assessed at the RD and recommended regimen. Three cohorts were included in this assessment. Cohort 1 included patients with endometrial cancer with a PIK3CA mutation; cohort 2 included patients with endometrial cancer with an AKT1 mutation, AKT1 amplification, or AKT2 amplification; and cohort 3 included patients with ovarian clear cell carcinoma.
The primary endpoints were the proportion of patients who experienced DLTs in Cycle 1 of the DEP and RMP and the incidence of adverse events (AEs) and adverse drug reactions (ADRs) in the SAP. AEs and ADRs were coded using the Medical Dictionary for Regulatory Activities (MedDRA; version 24.1) and graded according to the National Cancer Institute Common Terminology Criteria for Adverse Events (CTCAE; version 4.03). Secondary endpoints were pharmacokinetic findings, changes in the ratio of phosphorylated PRAS40 (pPRAS40)/total PRAS40 from baseline, efficacy, and pharmacogenomics findings.

C[C@]1(O)C[C@@](N)(c2ccc(-c3nc4n(c3-c3ccccc3)COc3ccncc3-4)cc2)C1 [TAS-117]
Grade 2 maculopapular rash requiring study interruption (DEP dose level 4 (24 mg QD)): All patients
Adverse drug reactions: ALT increased (All grade): 1 (8.3) n (%)
Adverse drug reactions: AST increased (All grade): 1 (8.3) n (%)
Adverse drug reactions: Any events (All grade): 11 (91.7) n (%)
Adverse drug reactions: Blood AP increased (All grade): 1 (8.3) n (%)
Adverse drug reactions: Decreased appetite (All grade): 2 (16.7) n (%)
Adverse drug reactions: Diarrhea (All grade): 1 (8.3) n (%)
Adverse drug reactions: Dry skin (All grade): 0 (0.0) n (%)
Adverse drug reactions: GGT increased (All grade): 1 (8.3) n (%)
Adverse drug reactions: GI disorders (All grade): 4 (33.3) n (%)
Adverse drug reactions: General disorders and administration site conditions (All grade): 2 (16.7) n (%)
Adverse drug reactions: Hyperglycemia (All grade): 4 (33.3) n (%)
Adverse drug reactions: Investigations (All grade): 5 (41.7) n (%)
Adverse drug reactions: Metabolism and nutrition disorders (All grade): 5 (41.7) n (%)
Adverse drug reactions: Nausea (All grade): 1 (8.3) n (%)
Adverse drug reactions: Neutrophil count decreased (All grade): 3 (25.0) n (%)
Adverse drug reactions: Pruritus (All grade): 1 (8.3) n (%)
Adverse drug reactions: Pyrexia (All grade): 1 (8.3) n (%)
Adverse drug reactions: Rash maculo-papular (All grade): 9 (75.0) n (%)
Adverse drug reactions: Skin and SC tissue disorders (All grade): 11 (91.7) n (%)
Adverse drug reactions: Stomatitis (All grade): 3 (25.0) n (%)
Adverse drug reactions: Vomiting (All grade): 2 (16.7) n (%)
Adverse drug reactions: WBC count decreased (All grade): 3 (25.0) n (%)
Adverse events: ALT increased (All grade): 3 (25.0) n (%)
Adverse events: AST increased (All grade): 3 (25.0) n (%)
Adverse events: Any events (All grade): 11 (91.7) n (%)
Adverse events: Blood AP increased (All grade): 2 (16.7) n (%)
Adverse events: Decreased appetite (All grade): 5 (41.7) n (%)
Adverse events: Diarrhea (All grade): 3 (25.0) n (%)
Adverse events: Dry skin (All grade): 0 (0.0) n (%)
Adverse events: GGT increased (All grade): 2 (16.7) n (%)
Adverse events: GI disorders (All grade): 7 (58.3) n (%)
Adverse events: General disorders and administration site conditions (All grade): 5 (41.7) n (%)
Adverse events: Hyperglycemia (All grade): 4 (33.3) n (%)
Adverse events: Investigations (All grade): 6 (50.0) n (%)
Adverse events: Metabolism and nutrition disorders (All grade): 9 (75.0) n (%)
Adverse events: Nausea (All grade): 2 (16.7) n (%)
Adverse events: Neutrophil count decreased (All grade): 3 (25.0) n (%)
Adverse events: Pruritus (All grade): 1 (8.3) n (%)
Adverse events: Pyrexia (All grade): 1 (8.3) n (%)
Adverse events: Rash maculo-papular (All grade): 9 (75.0) n (%)
Adverse events: Skin and SC tissue disorders (All grade): 11 (91.7) n (%)
Adverse events: Stomatitis (All grade): 3 (25.0) n (%)
Adverse events: Vomiting (All grade): 3 (25.0) n (%)
Adverse events: WBC count decreased (All grade): 3 (25.0) n (%)
Adverse drug reactions: ALT increased (≥ Grade 3): 0 (0.0) n (%)
Adverse drug reactions: AST increased (≥ Grade 3): 0 (0.0) n (%)
Adverse drug reactions: Any events (≥ Grade 3): 3 (25.0) n (%)
Adverse drug reactions: Blood AP increased (≥ Grade 3): 0 (0.0) n (%)
Adverse drug reactions: Decreased appetite (≥ Grade 3): 0 (0.0) n (%)
Adverse drug reactions: Diarrhea (≥ Grade 3): 0 (0.0) n (%)
Adverse drug reactions: Dry skin (≥ Grade 3): 0 (0.0) n (%)
Adverse drug reactions: GGT increased (≥ Grade 3): 0 (0.0) n (%)
Adverse drug reactions: GI disorders (≥ Grade 3): 0 (0.0) n (%)
Adverse drug reactions: General disorders and administration site conditions (≥ Grade 3): 0 (0.0) n (%)
Adverse drug reactions: Hyperglycemia (≥ Grade 3): 2 (16.7) n (%)
Adverse drug reactions: Investigations (≥ Grade 3): 1 (8.3) n (%)
Adverse drug reactions: Metabolism and nutrition disorders (≥ Grade 3): 2 (16.7) n (%)
Adverse drug reactions: Nausea (≥ Grade 3): 0 (0.0) n (%)
Adverse drug reactions: Neutrophil count decreased (≥ Grade 3): 0 (0.0) n (%)
Adverse drug reactions: Pruritus (≥ Grade 3): 0 (0.0) n (%)
Adverse drug reactions: Pyrexia (≥ Grade 3): 0 (0.0) n (%)
Adverse drug reactions: Rash maculo-papular (≥ Grade 3): 0 (0.0) n (%)
Adverse drug reactions: Skin and SC tissue disorders (≥ Grade 3): 0 (0.0) n (%)
Adverse drug reactions: Stomatitis (≥ Grade 3): 0 (0.0) n (%)
Adverse drug reactions: Vomiting (≥ Grade 3): 0 (0.0) n (%)
Adverse drug reactions: WBC count decreased (≥ Grade 3): 1 (8.3) n (%)
Adverse events: ALT increased (≥ Grade 3): 0 (0.0) n (%)
Adverse events: AST increased (≥ Grade 3): 1 (8.3) n (%)
Adverse events: Any events (≥ Grade 3): 3 (25.0) n (%)
Adverse events: Blood AP increased (≥ Grade 3): 1 (8.3) n (%)
Adverse events: Decreased appetite (≥ Grade 3): 0 (0.0) n (%)
Adverse events: Diarrhea (≥ Grade 3): 0 (0.0) n (%)
Adverse events: Dry skin (≥ Grade 3): 0 (0.0) n (%)
Adverse events: GGT increased (≥ Grade 3): 1 (8.3) n (%)
Adverse events: GI disorders (≥ Grade 3): 0 (0.0) n (%)
Adverse events: General disorders and administration site conditions (≥ Grade 3): 0 (0.0) n (%)
Adverse events: Hyperglycemia (≥ Grade 3): 2 (16.7) n (%)
Adverse events: Investigations (≥ Grade 3): 3 (25.0) n (%)
Adverse events: Metabolism and nutrition disorders (≥ Grade 3): 2 (16.7) n (%)
Adverse events: Nausea (≥ Grade 3): 0 (0.0) n (%)
Adverse events: Neutrophil count decreased (≥ Grade 3): 0 (0.0) n (%)
Adverse events: Pruritus (≥ Grade 3): 0 (0.0) n (%)
Adverse events: Pyrexia (≥ Grade 3): 0 (0.0) n (%)
Adverse events: Rash maculo-papular (≥ Grade 3): 0 (0.0) n (%)
Adverse events: Skin and SC tissue disorders (≥ Grade 3): 0 (0.0) n (%)
Adverse events: Stomatitis (≥ Grade 3): 0 (0.0) n (%)
Adverse events: Vomiting (≥ Grade 3): 0 (0.0) n (%)
Adverse events: WBC count decreased (≥ Grade 3): 1 (8.3) n (%)
Recommended dose (RD) (QD dosing, patients with advanced or metastatic solid tumors): 16 mg
DLTs (RMP dose level 4 (24 mg), intermittent administration): No DLTs

Source: publication PMC11129975, “A first-in-human phase I study of TAS-117, an allosteric AKT inhibitor, in patients with advanced solid tumors” (Cancer Chemotherapy and Pharmacology, 2024)
